Source: patent US9724355B2, “Fulvestrant compositions and methods of use” (SHIMODA BIOTECH (PTY) LTD, priority 2010, dated 2017)

Assay: Fulvestrant aqueous solubility in the presence and absence of cyclodextrins (excess drug, shaken 24 h, filtered, HPLC)
Format: physicochemical
Details: for True Fulvestrant Concentration: 22° C., 24 h; for Average Concentration / Quantity of Fulvestrant Diluted Run 1 / Quantity of Fulvestrant Diluted Run 2: diluted sample
Description: The HPLC system used for the chromatographic determination of fulvestrant consisted of a Waters 600E quaternary gradient pump, a Waters 717plus WISP auto-sampler and a Waters 2487 Dual A, Absorbance detector. Separation was performed using a Phenomenex Luna C18 column (250×4.6 mm; 5 urn) (Phenomenex, Torrance, Calif.) (supplied by Separations, South Africa) and a mobile phase consisting of 50% MeCN:22.5% ddH2O :27.5% MeOH. The mobile phase was degassed and filtered prior to use. […] Sample run times were 15 minutes. The UV detector wavelength was set to 280 nm.
(§1) 1 mL of each of the following aqueous solutions was prepared containing 0; 25; 50; 75 and 100 mg/mL ACD in ddHiO. Excess fulvestrant was added to each of these solutions and the samples were shaken for 24 hours on an orbital shaker at 200 rpm and at 22° C. room temperature. Excess fulvestrant was present in all samples at all times. After 24-hours, the samples were filtered through 0.45 μm syringe tip filters, diluted according to requirements and assayed by HPLC.
as §1, with “5; 7.5; 10” for “25; 50; 75”, “15” for “100”, “BCD” for “ACD”, “ddH2O.” for “ddHiO.”
as §1, with “0;” for “0; 25;”, “100; 150; 200; 250; 300; 350” for “75”, “400” for “100”, “MBCD” for “ACD”, “ddH2O.” for “ddHiO.”
as §1, with “0;” for “0; 25;”, “100; 150; 200; 250; 300; 350” for “75”, “400” for “100”, “HPBCD” for “ACD”, “ddH2O.” for “ddHiO.”
as §1, with “0;” for “0; 25;”, “100; 150; 200; 250; 300; 350” for “75”, “400” for “100”, “SBEBCD” for “ACD”, “ddH2O.” for “ddHiO.”
as §1, with “0;” for “0; 25;”, “100; 150;” for “75”, “200” for “100”, “GCD” for “ACD”, “ddHO.” for “ddHiO.”
as §1, with “0;” for “0; 25;”, “100; 150; 200; 250; 300; 350” for “75”, “400” for “100”, “HPGCD” for “ACD”, “ddH2O.” for “ddHiO.”

## C[C@]12CC[C@@H]3c4ccc(O)cc4C[C@@H](CCCCCCCCC[S+]([O-])CCCC(F)(F)C(F)(F)F)[C@H]3[C@@H]1CC[C@@H]2O (stereo partly drawn) [Fulvestrant, 7-alpha-[9-(4,4,5,5,5-pentafluoropentylsulphinyl)nonyl]estra-1,3,5-(10)-triene-3,17-beta-diol]
0 mg/mL ACD in ddH2O
  True Fulvestrant Concentration: <0.010 mg/mL
0 mg/mL ACD
  Average Concentration: <10.00 µg/mL
  Quantity of Fulvestrant Diluted Run 1: <10.000 µg/mL
  Quantity of Fulvestrant Diluted Run 2: <10.010 µg/mL
0 mg/mL BCD in ddH2O
  True Fulvestrant Concentration: <0.010 mg/mL
0 mg/mL BCD
  Average Concentration: <10.00 µg/mL
  Quantity of Fulvestrant Diluted Run 1: <10.000 µg/mL
  Quantity of Fulvestrant Diluted Run 2: <10.000 µg/mL
0 mg/mL GCD in ddH2O
  True Fulvestrant Concentration: <0.010 mg/mL
0 mg/mL GCD
  Average Concentration: <10.00 µg/mL
  Quantity of Fulvestrant Diluted Run 1: <10.000 µg/mL
  Quantity of Fulvestrant Diluted Run 2: <10.000 µg/mL
0 mg/mL HPBCD in ddH2O
  True Fulvestrant Concentration: <0.010 mg/mL
0 mg/mL HPBCD
  Average Concentration: <10.00 µg/mL
  Quantity of Fulvestrant Diluted Run 1: <10.00 µg/mL
  Quantity of Fulvestrant Diluted Run 2: <10.00 µg/mL
0 mg/mL HPGCD in ddH2O
  True Fulvestrant Concentration: <0.010 mg/mL
0 mg/mL HPGCD
  Average Concentration: <10.00 µg/mL
  Quantity of Fulvestrant Diluted Run 1: <10.00 µg/mL
  Quantity of Fulvestrant Diluted Run 2: <10.00 µg/mL
0 mg/mL MBCD in ddH2O
  True Fulvestrant Concentration: <0.010 mg/mL
0 mg/mL MBCD
  Average Concentration: <10.00 µg/mL
  Quantity of Fulvestrant Diluted Run 1: <10.00 µg/mL
  Quantity of Fulvestrant Diluted Run 2: <10.00 µg/mL
0 mg/mL SBEBCD
  Average Concentration: <10.00 µg/mL
  Quantity of Fulvestrant Diluted Run 1: <10.00 µg/mL
  Quantity of Fulvestrant Diluted Run 2: <10.00 µg/mL
5 mg/mL BCD in ddH2O
  True Fulvestrant Concentration: <0.010 mg/mL
5 mg/mL BCD
  Average Concentration: <10.00 µg/mL
  Quantity of Fulvestrant Diluted Run 1: <10.000 µg/mL
  Quantity of Fulvestrant Diluted Run 2: <10.000 µg/mL
10 mg/mL BCD in ddH2O
  True Fulvestrant Concentration: <0.010 mg/mL
10 mg/mL BCD
  Average Concentration: <10.00 µg/mL
  Quantity of Fulvestrant Diluted Run 1: <10.000 µg/mL
  Quantity of Fulvestrant Diluted Run 2: <10.000 µg/mL
15 mg/mL BCD in ddH2O
  True Fulvestrant Concentration: 0.013 mg/mL
15 mg/mL BCD
  Average Concentration: 13.00 µg/mL
  Quantity of Fulvestrant Diluted Run 1: 13.060 µg/mL
  Quantity of Fulvestrant Diluted Run 2: 12.940 µg/mL
25 mg/mL ACD in ddH2O
  True Fulvestrant Concentration: 0.033 mg/mL
25 mg/mL ACD
  Average Concentration: 33.30 µg/mL
  Quantity of Fulvestrant Diluted Run 1: 33.620 µg/mL
  Quantity of Fulvestrant Diluted Run 2: 32.970 µg/mL
50 mg/mL ACD in ddH2O
  True Fulvestrant Concentration: 0.111 mg/mL
50 mg/mL ACD
  Average Concentration: 110.74 µg/mL
  Quantity of Fulvestrant Diluted Run 1: 110.600 µg/mL
  Quantity of Fulvestrant Diluted Run 2: 110.880 µg/mL
50 mg/mL GCD in ddH2O
  True Fulvestrant Concentration: 0.011 mg/mL
50 mg/mL GCD
  Average Concentration: 10.62 µg/mL
  Quantity of Fulvestrant Diluted Run 1: 10.700 µg/mL
  Quantity of Fulvestrant Diluted Run 2: 10.530 µg/mL
50 mg/mL HPBCD in ddH2O
  True Fulvestrant Concentration: 0.210 mg/mL
50 mg/mL HPBCD
  Average Concentration: 20.95 µg/mL
  Quantity of Fulvestrant Diluted Run 1: 21.09 µg/mL
  Quantity of Fulvestrant Diluted Run 2: 20.81 µg/mL
50 mg/mL HPGCD in ddH2O
  True Fulvestrant Concentration: 0.037 mg/mL
50 mg/mL HPGCD
  Average Concentration: 38.32 µg/mL
  Quantity of Fulvestrant Diluted Run 1: 38.66 µg/mL
  Quantity of Fulvestrant Diluted Run 2: 37.97 µg/mL
50 mg/mL MBCD in ddH2O
  True Fulvestrant Concentration: 0.750 mg/mL
50 mg/mL MBCD
  Average Concentration: 74.99 µg/mL
  Quantity of Fulvestrant Diluted Run 1: 74.61 µg/mL
  Quantity of Fulvestrant Diluted Run 2: 75.37 µg/mL
50 mg/mL SBEBCD in ddH2O
  True Fulvestrant Concentration: 0.077 mg/mL
50 mg/mL SBEBCD
  Average Concentration: 77.30 µg/mL
  Quantity of Fulvestrant Diluted Run 1: 76.98 µg/mL
  Quantity of Fulvestrant Diluted Run 2: 77.61 µg/mL
75 mg/mL ACD in ddH2O
  True Fulvestrant Concentration: 0.310 mg/mL
75 mg/mL ACD
  Average Concentration: 310.32 µg/mL
  Quantity of Fulvestrant Diluted Run 1: 310.460 µg/mL
  Quantity of Fulvestrant Diluted Run 2: 310.170 µg/mL
100 mg/mL ACD in ddH2O
  True Fulvestrant Concentration: 1.683 mg/mL
100 mg/mL ACD
  Average Concentration: 168.26 µg/mL
  Quantity of Fulvestrant Diluted Run 1: 162.660 µg/mL
  Quantity of Fulvestrant Diluted Run 2: 173.850 µg/mL
100 mg/mL GCD in ddH2O
  True Fulvestrant Concentration: <0.010 mg/mL
100 mg/mL GCD
  Average Concentration: <10.00 µg/mL
  Quantity of Fulvestrant Diluted Run 1: <10.000 µg/mL
  Quantity of Fulvestrant Diluted Run 2: <10.000 µg/mL
100 mg/mL HPBCD in ddH2O
  True Fulvestrant Concentration: 0.483 mg/mL
100 mg/mL HPBCD
  Average Concentration: 48.30 µg/mL
  Quantity of Fulvestrant Diluted Run 1: 48.32 µg/mL
  Quantity of Fulvestrant Diluted Run 2: 48.27 µg/mL
100 mg/mL HPGCD in ddH2O
  True Fulvestrant Concentration: 0.107 mg/mL
100 mg/mL HPGCD
  Average Concentration: 116.27 µg/mL
  Quantity of Fulvestrant Diluted Run 1: 116.80 µg/mL
  Quantity of Fulvestrant Diluted Run 2: 115.74 µg/mL
100 mg/mL MBCD in ddH2O
  True Fulvestrant Concentration: 3.021 mg/mL
100 mg/mL MBCD
  Average Concentration: 302.06 µg/mL
  Quantity of Fulvestrant Diluted Run 1: 302.12 µg/mL
  Quantity of Fulvestrant Diluted Run 2: 301.99 µg/mL
100 mg/mL SBEBCD in ddH2O
  True Fulvestrant Concentration: 0.167 mg/mL
100 mg/mL SBEBCD
  Average Concentration: 167.10 µg/mL
  Quantity of Fulvestrant Diluted Run 1: 167.7 µg/mL
  Quantity of Fulvestrant Diluted Run 2: 166.49 µg/mL
150 mg/mL GCD in ddH2O
  True Fulvestrant Concentration: <0.010 mg/mL
150 mg/mL GCD
  Average Concentration: <10.00 µg/mL
  Quantity of Fulvestrant Diluted Run 1: <10.000 µg/mL
  Quantity of Fulvestrant Diluted Run 2: <10.000 µg/mL
150 mg/mL HPBCD in ddH2O
  True Fulvestrant Concentration: 0.937 mg/mL
150 mg/mL HPBCD
  Average Concentration: 93.66 µg/mL
  Quantity of Fulvestrant Diluted Run 1: 93.82 µg/mL
